Test results published in patent publication US9375450B2, “Vaginal tissue rejuvenation compositions and methods” (priority 2011, dated 2016).

Columns and labels:
[1] = system: rat vaginal Collagen I, Collagen III, Collagen V protein; assay: Immunofluorescence of vaginal collagen protein expression after 2 weeks vaginal suppositories; assay type: in vivo; conditions: OVX rats, vaginal suppositories 2 weeks, mean±SD
Description: Ten to 12-weeks old female ovariectomized (OVX) Sprague-Dawley rats were utilized for the experiments. The animals were acclimatized to the environmental conditions before starting the experiment. The animals were housed individually and were allowed free access to water and rodent food. […] The suppositories were prepared according to the fusion method, using a polypeg suppository base ([…]., USA). […] Using a microwave, the suppository base was melted in a small beaker for 3 min and then transferred and kept into a water bath at a temperature of 55° C. The proper amount of above reagent was added to the liquefied base and meticulously crushed with a smooth rounded-end glass rod for about 20 min to make the solution to be even and clear. A pipette tip was used to suck some amount of solution and push it into a plastic tube with a diameter of 3.5 mm, and the tube was immediately left on the flat surface of an ice bucket. The suppository turned to white in color when it was solid. The moulded suppository was then pushed out of the tube using a round rod. […] After 30 min of cooling at room temperature, the suppositories were stored at 4° C. in a closed chamber until use. They were left to reach room temperature before use. The day after the last treatment the rats were overnight fasted and then sacrificed. Macroscopic measurement (genital hiatus, vaginal length) were taken and the vagina was dissected out carefully to avoid any injury to the vagina. The mid section of the vagina was utilized for histology (H and E stain, Masson's trichrome stain) and immunofluorescence and the rest of the vagina was used for RNA extraction and RT-PCR. Samples were incubated with three different antibodies, collagen I, III and anti-actin or collagen I and V and anti-actin. Frozen tissues samples were cut into sections of 6 μm and fixed for 10 min with acetone, followed by five washes of phosphate-buffered saline (PBS). […] After that, sections were incubated with the secondary antibody for one hour in the dark, at room temperature, followed by five washes of PBS. […] Alexa Fluor 405 Goat Anti-Mouse IgG (1:400) (Invitrogen); Cy3-AffiniPure Goat Anti-Mouse IgM (1:400) (Jackson ImmunoResearch Laboratories, West Grove, Pa.); Alexa Fluor 647 (1;200) phalloidin (Invitrogen). […] Four images were obtained per section. Images were capture with an Orca II-ERG 12 bitt CCD camera in a Zeiss Apotome microscope with a 20× objective. The data was analyzed using Matamorph version 7.7.4 software. Results are represented as mean pixel intensity ratios per square area.

[2] = system: ovariectomized (OVX) Sprague-Dawley rats; assay: Macroscopic measurements (genital hiatus, vaginal length) after 2 weeks vaginal suppositories; assay type: in vivo, rat; conditions: vaginal suppositories 2 weeks (20 μM zinc sulfate, 10 nM GW501516, 0.01% estradiol), mean±SD
Description: (§1) Ten to 12-weeks old female ovariectomized (OVX) Sprague-Dawley rats were utilized for the experiments. The animals were acclimatized to the environmental conditions before starting the experiment. The animals were housed individually and were allowed free access to water and rodent food. […] The suppositories were prepared according to the fusion method, using a polypeg suppository base ([…]., USA). […] Using a microwave, the suppository base was melted in a small beaker for 3 min and then transferred and kept into a water bath at a temperature of 55° C. The proper amount of above reagent was added to the liquefied base and meticulously crushed with a smooth rounded-end glass rod for about 20 min to make the solution to be even and clear. A pipette tip was used to suck some amount of solution and push it into a plastic tube with a diameter of 3.5 mm, and the tube was immediately left on the flat surface of an ice bucket. The suppository turned to white in color when it was solid. The moulded suppository was then pushed out of the tube using a round rod. […] After 30 min of cooling at room temperature, the suppositories were stored at 4° C. in a closed chamber until use. They were left to reach room temperature before use. The day after the last treatment the rats were overnight fasted and then sacrificed. Macroscopic measurement (genital hiatus, vaginal length) were taken and the vagina was dissected out carefully to avoid any injury to the vagina. The mid section of the vagina was utilized for histology (H and E stain, Masson's trichrome stain) and immunofluorescence and the rest of the vagina was used for RNA extraction and RT-PCR.

[3] = system: rat vaginal Col1a1, Col3a1, Col5a1 mRNA; assay: qRT-PCR of vaginal collagen gene expression after 2 weeks vaginal suppositories; assay type: in vivo; conditions: OVX rats, vaginal suppositories 2 weeks, mean±SD
Description: Ten to 12-weeks old female ovariectomized (OVX) Sprague-Dawley rats were utilized for the experiments. The animals were acclimatized to the environmental conditions before starting the experiment. The animals were housed individually and were allowed free access to water and rodent food. Two weeks after the ovariectomy rats (n=36) were divided into five groups: control (receiving placebo suppositories, n=8), Zinc (receiving zinc sulfate containing suppositories, n=8), GW (receiving GW501516 containing suppositories, n=8), Zinc with GW (receiving Zinc with GW 501516 containing suppositories, n=8) and Estradiol (receiving estradiol containing suppositories, n=4).
The suppositories were prepared according to the fusion method, using a polypeg suppository base (MEDISCA, N.Y., USA). […] Using a microwave, the suppository base was melted in a small beaker for 3 min and then transferred and kept into a water bath at a temperature of 55° C. The proper amount of above reagent was added to the liquefied base and meticulously crushed with a smooth rounded-end glass rod for about 20 min to make the solution to be even and clear. A pipette tip was used to suck some amount of solution and push it into a plastic tube with a diameter of 3.5 mm, and the tube was immediately left on the flat surface of an ice bucket. The suppository turned to white in color when it was solid. The moulded suppository was then pushed out of the tube using a round rod. The moulded suppository was cut using a razor blade to a length of 1.2 cm each, which was calibrated to equal a volume of 50±5 μl per each suppository. After 30 min of cooling at room temperature, the suppositories were stored at 4° C. in a closed chamber until use. They were left to reach room temperature before use.
Total RNA was isolated from 20 mg of vaginal rat tissue in each experimental rat group using the RNeasy Mini kit (Qiagen) according to the manufacturer's specifications. For each total RNA preparation, DNase digestion was performed to remove contaminating genomic DNA. Total RNA samples from each tissue were quantified and evaluated for RNA integrity by the Agilent Bioanalyzer 2100 (Applied Biosystems, Foster City Calif., USA). Following RNA extraction, cDNA was reverse transcribed from ˜500 ng of each total RNA preparation using the qScript cDNA synthesis kit (Quanta Biosciences, Gaithersburg Md., USA). Finally, cDNA samples were used to perform gene expression analysis by qRT-PCR using SYBR Green technology on the RealPlex EP Mastercycler (Eppendorf, Germany) of five genes with known roles in vaginal tissue reconstruction: Collagen IaI (col 1a1), Collagen IIIaI (col 3a1), Collagen VaI (col 5a1), Elastin (eln), Tensin I (tns-1). Glyceraldehyde-3 Phosphate Dehydrogenase (gapdh) was used as a positive control to normalize the expression of each gene. Each qRT-PCR reaction was run in triplicate using Perfecta SYBR Green Supermix (Quanta Biosciences, Gaithersburg Md., USA) in 25 μL reaction volumes using a final concentration of 300 nM forward and reverse primers. For each of the genes analyzed in this study, primers were designed using Primer-BLAST software (NCBI) and synthesized by IDT Technologies (San Diego, Calif.).

[4] = system: ovariectomized (OVX) Sprague-Dawley rats; assay: Vaginal histology and histomorphometry after 2 weeks vaginal suppositories; assay type: in vivo, rat; conditions: vaginal suppositories 2 weeks
Description: as §1, with “RT-PCR. […] For each animal, a 4 μm-thick paraffin section was cut and stained with haematoxylineosin and with Masson's trichrome stain for morphological examination. […] The cornification was determined by the presence of a keratin layer on the vaginal epithelium. Measurements of the different vaginal layers were performed on the fifth segment of the vagina, which is approximately halfway between the middle region and the portio vaginalis uteri. […] Images were captured with a color digital camera and quantified using ImageJ software was used. […] The thickness of the lamina propria was obtained by deducting the thickness of the epithelium and muscularis from total vaginal thickness.” for “RT-PCR.”

Structure (SMILES): C[C@]12CC[C@@H]3c4ccc(O)cc4CC[C@H]3[C@@H]1CC[C@@H]2O [Estradiol]
- ratio of vaginal Collagen I to Collagen III protein expression ([1]; placebo 1.16±0.2): 1.08±0.2 relative units
- ratio of vaginal Collagen I to Collagen V protein expression ([1]; placebo 1.28±0.3): 1.74±0.5 relative units
- genital hiatus (distance between the external urethral meatus and the mid anus) ([2]; placebo 12.6±1.1): 16.0±1.4 mm
- vaginal length ([2]; placebo 14.1±1.1): 18.7±1.5 mm
- ratio of vaginal Col1a1 to Col3a1 mRNA expression ([3]; placebo 0.78±0.2): 0.70±0.4 relative units
- ratio of vaginal Col1a1 to Col5a1 mRNA expression ([3]; placebo 4.3±1.9): 5.3±1.2 relative units
- vaginal epithelial thickness ([4]; mean±SD, placebo 57±18): 140±54 μm
- vaginal muscularis thickness ([4]; mean±SD, placebo 121±44): 124±53 μm
- vaginal lamina propria thickness ([4]; mean±SD, placebo 179±71): 152±80 μm
- vaginal thickness (all three layers of the vagina) ([4]; mean±SD, placebo 358±86): 417±82 μm
- vaginal epithelial cornification rate ([4]; placebo 0%): 100%
- lamina propria collagen fiber compactness ([4]; scale 0-5 (0=loose, 5=tight), mean±SD, placebo 4.5±0.6): 1.6±0.6 relative units
